Reference: patent US20240317740A1, “NOVEL COMPOUNDS AND THEIR USE” (Debiopharm International S.A., priority 2021, published 2024)
≈ marks a conversion by molar mass, not a printed value.

Columns and labels:
A. baumannii FabI = A. baumannii FabI (Acinetobacter baumannii, UniProt D0CAD5); assay: Inhibition of FabI enzyme (NADH consumption rate); type: biochemical; settings: recombinant FabI, 30° C., pH 7.25
Protocol: Inhibition of Fabl enzyme from Acinetobacter baumannii and Escherichia coli was tested by measuring the rate of NADH consumption (Aabsorbance at 340 nm/min) at 30° C. in 96-well plate format using an automated plate reader in the presence or absence of the test compounds. The assay mixture contained 100 mM Tris-HCl, pH 7.25 (A. baumannii) or 7.5 (E. coli), 100 mM ammonium acetate, 0.02% (A. baumannii) or 0.05% (E. coli) Pluronic F-68, 25 μM crotonyl ACP, 50 μM NADH, […] recombinant Fabl protein, and 7.5% DMSO. Test compounds were added at concentrations ranging from 0.17 to 10,000 nM in a final well volume of 100 μl. This dose-response inhibitory assay was performed using a 10-point, serial dilution series for each test compound. IC50 values for each test compound were assigned from logistical sigmoid curve-fitting of the inhibition dose response curves.

S. aureus ATCC 29213 = assay: Broth microdilution MIC assay; type: cell-based; settings: Staphylococcus aureus, ATCC29213; CA-MHB, 1% DMSO, 35° C., 20 hours
Protocol: (§1) The antibacterial activity of Fabl inhibitors against select Gram-negative and Gram-positive bacterial species including susceptible and multi-drug resistant A. baumannii, E. coli, K. pneumoniae and S. aureus was tested using the broth microdilution Minimal Inhibitory Concentration (MIC) assay following CLSI guidelines for insoluble compounds. Test articles were serially diluted 2-fold in 100% dimethyl sulfoxide (DMSO) and then diluted 100-fold into cation adjusted Mueller-Hinton broth (CA-MHB) to achieve a 10-point test concentration range in 1% DMSO. Final compound concentrations were 0.016-8 μg/ml for S. aureus or 0.06-32 μg/ml for the Gram-negative species. MIC test plates were then prepared by transferring 100 μl of the final assay medium (test article in CA-MHB, 1% DMSO) into the appropriate wells of a sterile, low binding 96-well polystyrene plate. Direct colony suspension inoculums of the test strains were freshly prepared per CLSI guidelines, and the appropriate test wells were inoculated to achieve a final bacterial cell density of 5×10^5 CFU/ml. Growth control (no test article) and negative control (no bacterial inoculum) wells were also included. Exposure to light was minimized during all stages of assay preparation. MIC test plates were incubated at 35° C. for 20 hours. Bacterial growth was then determined by measuring the optical density at 600 nm (OD600) using a SpectraMax Plus plate-reader spectrophotometer.

E. coli AG100 = assay: Broth microdilution MIC assay; type: cell-based; settings: Escherichia coli, CA-MHB, 1% DMSO, 35° C., 20 hours
Protocol: as §1

[1] = system: A. baumannii ATCC BAA1605; assay: Broth microdilution MIC assay; type: cell-based; settings: Acinetobacter baumannii, ATCCBAA1605; CA-MHB, 1% DMSO, 35° C., 20 hours
Protocol: as §1

K. pneumoniae A6030827 = assay: Broth microdilution MIC assay; type: cell-based; settings: Klebsiella pneumoniae, CA-MHB, 1% DMSO, 35° C., 20 hours
Protocol: as §1

Chain of A. baumannii FabI (D0CAD5 1-288): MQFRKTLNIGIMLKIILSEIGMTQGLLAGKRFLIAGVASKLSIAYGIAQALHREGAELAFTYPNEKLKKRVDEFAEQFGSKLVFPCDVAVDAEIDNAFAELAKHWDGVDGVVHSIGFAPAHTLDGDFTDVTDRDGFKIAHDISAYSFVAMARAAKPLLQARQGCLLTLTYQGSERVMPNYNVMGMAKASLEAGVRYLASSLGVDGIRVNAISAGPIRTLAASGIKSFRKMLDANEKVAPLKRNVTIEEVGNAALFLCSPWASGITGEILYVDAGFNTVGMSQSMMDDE

CNC1CCc2cc(/C=C/C(=O)N(C)Cc3c(C)oc4ccccc34)cnc2NC1=O (centres unmarked) [Compound 11, (E)-N-methyl-3-(7-(methylamino)-8-oxo-6,7,8,9-tetrahydro-5H-pyrido[2,3-b]azepin-3-yl)-N-((2-methylbenzofuran-3-yl)methyl)acrylamide]
IC50 (A. baumannii FabI): < 10 nM
MIC (S. aureus ATCC 29213): ≤ 4 µg/mL
MIC (E. coli AG100): 8 µg/mL (≈ 19.1 µM)
MIC [1]: 8 µg/mL (≈ 19.1 µM)
MIC (K. pneumoniae A6030827): 8 µg/mL (≈ 19.1 µM)

Cc1oc2ccccc2c1CN(C)C(=O)/C=C/c1cnc2c(c1)CCC(C)(N)C(=O)N2 (single isomer, unassigned) [Compound 39, (S*,E)-3-(7-amino-7-methyl-8-oxo-6,7,8,9-tetrahydro-5H-pyrido[2,3-b]azepin-3-yl)-N-methyl-N-((2-methylbenzofuran-3-yl)methyl)acrylamide]
IC50 (A. baumannii FabI): < 10 nM
MIC (S. aureus ATCC 29213): ≤ 4 µg/mL
MIC (E. coli AG100): ≤ 4 µg/mL
MIC [1]: ≤ 4 µg/mL

Cc1oc2ccccc2c1CN(C)C(=O)/C=C/c1cnc2c(c1)CCC(N1CCCC1)C(=O)N2 (centres unmarked) [Compound 15, (E)-N-methyl-N-[(2-methylbenzofuran-3-yl)methyl]-3-(8-oxo-7-pyrrolidin-1-yl-5,6,7,9-tetrahydropyrido[2,3-b]azepin-3-yl)prop-2-enamide]
IC50 (A. baumannii FabI): < 10 nM
MIC (S. aureus ATCC 29213): ≤ 4 µg/mL
MIC (E. coli AG100): 16 µg/mL (≈ 34.9 µM)
MIC [1]: ≤ 4 µg/mL
MIC (K. pneumoniae A6030827): 16 µg/mL (≈ 34.9 µM)

Cc1oc2ccccc2c1CN(C)C(=O)/C=C/c1cnc2c(c1)N[C@H](C)[C@H](N)C(=O)N2 [Compound 23, (E)-3-((2R,3S)-3-amino-2-methyl-4-oxo-2,3,4,5-tetrahydro-1H-pyrido[2,3-b][1,4]diazepin-8-yl)-N-methyl-N-((2-methylbenzofuran-3-yl)methyl)acrylamide]
IC50 (A. baumannii FabI): < 10 nM
MIC (S. aureus ATCC 29213): ≤ 4 µg/mL
MIC (E. coli AG100): 8 µg/mL (≈ 19.1 µM)
MIC [1]: ≤ 4 µg/mL
MIC (K. pneumoniae A6030827): 8 µg/mL (≈ 19.1 µM)

Cc1oc2ccccc2c1CN(C)C(=O)/C=C/c1cnc2c(c1)CCC(N1CC[C@@H](O)C1)C(=O)N2 (single isomer, unassigned) [Compound 28, (E)-3-((R*)-7-((R)-3-hydroxypyrrolidin-1-yl)-8-oxo-6,7,8,9-tetrahydro-5H-pyrido[2,3-b]azepin-3-yl)-N-methyl-N-((2-methylbenzofuran-3-yl)methyl)acrylamide]
IC50 (A. baumannii FabI): < 10 nM

Cc1oc2ccccc2c1CN(C)C(=O)/C=C/c1cnc2c(c1)CCC(N(C)C)C(=O)N2 (centres unmarked) [Compound 13, (E)-3-[7-(dimethylamino)-8-oxo-5,6,7,9-tetrahydropyrido[2,3-b]azepin-3-yl]-N-methyl-N-[(2-methylbenzofuran-3-yl)methyl]prop-2-enamide]
IC50 (A. baumannii FabI): < 10 nM
MIC (S. aureus ATCC 29213): ≤ 4 µg/mL
MIC (E. coli AG100): 16 µg/mL (≈ 37 µM)
MIC [1]: ≤ 4 µg/mL
MIC (K. pneumoniae A6030827): 8 µg/mL (≈ 18.5 µM)

Cc1oc2ccccc2c1CN(C)C(=O)/C=C/c1cnc2c(c1)CCC(N1CCCC1)C(=O)N2 (single isomer, unassigned) [Compound 25, (S*,E)-N-methyl-N-((2-methylbenzofuran-3-yl)methyl)-3-(8-oxo-7-(pyrrolidin-1-yl)-6,7,8,9-tetrahydro-5H-pyrido[2,3-b]azepin-3-yl)acrylamide]
IC50 (A. baumannii FabI): < 10 nM
MIC (S. aureus ATCC 29213): ≤ 4 µg/mL
MIC (E. coli AG100): 8 µg/mL (≈ 17.4 µM)
MIC [1]: ≤ 4 µg/mL

Cc1oc2ccccc2c1CN(C)C(=O)/C=C/c1cnc2c(c1)CCC(N1CC[C@@H](O)C1)C(=O)N2 (stereo in doubt) [Compound 28, (E)-3-((R*)-7-((R)-3-hydroxypyrrolidin-1-yl)-8-oxo-6,7,8,9-tetrahydro-5H-pyrido[2,3-b]azepin-3-yl)-N-methyl-N-((2-methylbenzofuran-3-yl)methyl)acrylamide]
MIC (S. aureus ATCC 29213): ≤ 4 µg/mL
MIC (E. coli AG100): 8 µg/mL (≈ 16.9 µM)
MIC [1]: ≤ 4 µg/mL
